Target: C-KIT (D816V) (Homo sapiens, UniProt P10721, D816V)
Assay: in vitro kinase activity assay (substrate/ATP, 384-well, ELISA-BMG readout), positive control
Format: biochemical

Chain of C-KIT (D816V) (P10721 546-976 D816V limits assumed): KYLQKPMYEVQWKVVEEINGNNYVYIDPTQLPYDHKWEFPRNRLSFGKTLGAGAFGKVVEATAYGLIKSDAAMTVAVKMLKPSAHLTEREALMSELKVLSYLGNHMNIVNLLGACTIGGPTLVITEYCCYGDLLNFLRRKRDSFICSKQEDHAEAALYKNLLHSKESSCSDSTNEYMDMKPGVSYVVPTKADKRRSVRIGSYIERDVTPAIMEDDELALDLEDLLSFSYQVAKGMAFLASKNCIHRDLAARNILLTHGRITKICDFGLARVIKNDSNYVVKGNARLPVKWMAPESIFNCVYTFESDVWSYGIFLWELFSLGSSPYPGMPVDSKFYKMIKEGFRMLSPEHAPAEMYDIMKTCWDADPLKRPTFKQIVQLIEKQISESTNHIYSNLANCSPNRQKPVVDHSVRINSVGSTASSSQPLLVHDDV

S=C(NCc1ccc2c(c1)OCO2)N1CCN(c2ncnc3c2oc2ccccc23)CC1 [Amuvatinib]
IC50: 26.9 ± 1.51 nM
